Assay results from the supplement of paper PMC10307832.

What was measured:
Experiment in all cases: relative viability (nuclei count vs DMSO), 5 days (fraction); higher = more cells survive
[1] = system: 201T
In short: (§1)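 Values are medians from duplicate plates. Each reflects relative viability, defined as the nuclei count of treated wells over that of vehicle wells. Lung cancer cell lines in 1536-well plates were pin-tool dosed one day after seeding with one drug alone or with a fixed anchor-drug dose plus five library-drug doses (not always all listed) in √10 steps, then fixed, stained and imaged at 4× after 5 days.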

[2] = system: A-427
In short: as §1

[3] = system: COR-L23
In short: as §1

[4] = system: H3255
In short: as §1

[5] = system: LCLC-103H
In short: as §1

[6] = system: LCLC-97TM1
In short: as §1

[7] = system: LK-2
In short: as §1

[8] = system: LU99A
In short: as §1

[9] = system: NCI-H1650
In short: as §1

[10] = system: NCI-H1651
In short: as §1

[11] = system: NCI-H1793
In short: as §1

[12] = system: NCI-H1944
In short: as §1

[13] = system: NCI-H2347
In short: as §1

[14] = system: NCI-H23
In short: as §1

[15] = system: NCI-H460
In short: as §1

[16] = system: NCI-H650
In short: as §1

[17] = system: NCI-H727
In short: as §1

[18] = system: NCI-H838
In short: as §1

[19] = system: PC-14
In short: as §1

[20] = system: PC-3 [JPC-3]
In short: as §1

[21] = system: RERF-LC-KJ
In short: as §1

[22] = system: SW 1573
In short: as §1

[23] = system: SW 900
In short: as §1

## CC(C)Oc1cc(Nc2nc(N[C@@H](C)c3ccc(F)cn3)ncc2Cl)n[nH]1 [AZ23] + O=C(CCCCCCC(=O)Nc1ccccc1)NO [Vorinostat] (partner 1 µM)
[1]; first compound 0.01 µM
  relative viability: 1.05
[1]; first compound 0.03162 µM
  relative viability: 1.09
[1]; first compound 0.3162 µM
  relative viability: 1.08
[2]; first compound 0.01 µM
  relative viability: 0.699
[2]; first compound 0.03162 µM
  relative viability: 0.892
[2]; first compound 0.3162 µM
  relative viability: 0.988
[3]; first compound 0.01 µM
  relative viability: 0.164
[3]; first compound 0.03162 µM
  relative viability: 0.498
[3]; first compound 0.3162 µM
  relative viability: 0.424
[4]; first compound 0.01 µM
  relative viability: 0.737
[4]; first compound 0.03162 µM
  relative viability: 0.791
[4]; first compound 0.3162 µM
  relative viability: 0.867
[5]; first compound 0.01 µM
  relative viability: 0.76
[5]; first compound 0.03162 µM
  relative viability: 0.85
[5]; first compound 0.3162 µM
  relative viability: 0.769
[6]; first compound 0.01 µM
  relative viability: 0.582
[6]; first compound 0.03162 µM
  relative viability: 0.885
[6]; first compound 0.3162 µM
  relative viability: 0.396
[7]; first compound 0.01 µM
  relative viability: 0.22
[7]; first compound 0.03162 µM
  relative viability: 0.216
[7]; first compound 0.3162 µM
  relative viability: 0.3
[8]; first compound 0.01 µM
  relative viability: 0.516
[8]; first compound 0.03162 µM
  relative viability: 0.6
[8]; first compound 0.3162 µM
  relative viability: 0.493
[9]; first compound 0.01 µM
  relative viability: 0.441
[9]; first compound 0.03162 µM
  relative viability: 1.16
[9]; first compound 0.3162 µM
  relative viability: 0.737
[10]; first compound 0.01 µM
  relative viability: 0.524
[10]; first compound 0.03162 µM
  relative viability: 0.545
[10]; first compound 0.3162 µM
  relative viability: 0.584
[11]; first compound 0.01 µM
  relative viability: 0.679
[11]; first compound 0.03162 µM
  relative viability: 0.811
[11]; first compound 0.3162 µM
  relative viability: 0.892
[12]; first compound 0.01 µM
  relative viability: 0.409
[12]; first compound 0.03162 µM
  relative viability: 0.625
[12]; first compound 0.3162 µM
  relative viability: 0.631
[13]; first compound 0.01 µM
  relative viability: 0.446
[13]; first compound 0.03162 µM
  relative viability: 0.631
[13]; first compound 0.3162 µM
  relative viability: 0.587
[14]; first compound 0.03162 µM
  relative viability: 0.62
[14]; first compound 0.3162 µM
  relative viability: 0.719
[15]; first compound 0.01 µM
  relative viability: 0.252
[15]; first compound 0.03162 µM
  relative viability: 1.06
[15]; first compound 0.3162 µM
  relative viability: 0.774
[16]; first compound 0.01 µM
  relative viability: 0.411
[16]; first compound 0.03162 µM
  relative viability: 0.583
[16]; first compound 0.3162 µM
  relative viability: 0.452
[17]; first compound 0.01 µM
  relative viability: 1.07
[17]; first compound 0.03162 µM
  relative viability: 1.13
[17]; first compound 0.3162 µM
  relative viability: 1.37
[18]; first compound 0.01 µM
  relative viability: 0.768
[18]; first compound 0.03162 µM
  relative viability: 0.687
[18]; first compound 0.3162 µM
  relative viability: 0.626
[19]; first compound 0.01 µM
  relative viability: 0.284
[19]; first compound 0.03162 µM
  relative viability: 0.874
[19]; first compound 0.3162 µM
  relative viability: 0.905
[20]; first compound 0.01 µM
  relative viability: 0.721
[20]; first compound 0.03162 µM
  relative viability: 0.867
[20]; first compound 0.3162 µM
  relative viability: 0.826
[21]; first compound 0.01 µM
  relative viability: 0.711
[21]; first compound 0.03162 µM
  relative viability: 0.704
[21]; first compound 0.3162 µM
  relative viability: 0.675
[22]; first compound 0.01 µM
  relative viability: 0.963
[22]; first compound 0.03162 µM
  relative viability: 0.881
[22]; first compound 0.3162 µM
  relative viability: 0.757
[23]; first compound 0.01 µM
  relative viability: 0.367
[23]; first compound 0.3162 µM
  relative viability: 0.544

## CC(C)Oc1cc(Nc2nc(N[C@@H](C)c3ccc(F)cn3)ncc2Cl)n[nH]1 [AZ23] + O=C(c1cc(Cc2n[nH]c(=O)c3ccccc23)ccc1F)N1CCN(C(=O)C2CC2)CC1 [Olaparib] (partner 8 µM)
[1]; first compound 0.01 µM
  relative viability: 0.899
[1]; first compound 0.03162 µM
  relative viability: 0.872
[1]; first compound 0.3162 µM
  relative viability: 0.85
[2]; first compound 0.01 µM
  relative viability: 0.82
[2]; first compound 0.03162 µM
  relative viability: 0.885
[2]; first compound 0.3162 µM
  relative viability: 0.856
[3]; first compound 0.01 µM
  relative viability: 0.272
[3]; first compound 0.03162 µM
  relative viability: 0.365
[3]; first compound 0.3162 µM
  relative viability: 0.34
[4]; first compound 0.01 µM
  relative viability: 0.524
[4]; first compound 0.03162 µM
  relative viability: 0.581
[4]; first compound 0.3162 µM
  relative viability: 0.542
[5]; first compound 0.01 µM
  relative viability: 0.981
[5]; first compound 0.03162 µM
  relative viability: 0.86
[5]; first compound 0.3162 µM
  relative viability: 0.864
[6]; first compound 0.01 µM
  relative viability: 0.299
[6]; first compound 0.03162 µM
  relative viability: 0.526
[6]; first compound 0.3162 µM
  relative viability: 0.416
[7]; first compound 0.01 µM
  relative viability: 0.717
[7]; first compound 0.03162 µM
  relative viability: 0.825
[7]; first compound 0.3162 µM
  relative viability: 0.68
[8]; first compound 0.01 µM
  relative viability: 0.233
[8]; first compound 0.03162 µM
  relative viability: 0.237
[8]; first compound 0.3162 µM
  relative viability: 0.328
[9]; first compound 0.01 µM
  relative viability: 0.685
[9]; first compound 0.03162 µM
  relative viability: 0.97
[9]; first compound 0.3162 µM
  relative viability: 0.876
[10]; first compound 0.01 µM
  relative viability: 0.182
[10]; first compound 0.03162 µM
  relative viability: 0.166
[10]; first compound 0.3162 µM
  relative viability: 0.19
[11]; first compound 0.01 µM
  relative viability: 0.756
[11]; first compound 0.03162 µM
  relative viability: 1.1
[11]; first compound 0.3162 µM
  relative viability: 0.85
[12]; first compound 0.01 µM
  relative viability: 0.443
[12]; first compound 0.03162 µM
  relative viability: 0.472
[12]; first compound 0.3162 µM
  relative viability: 0.448
[13]; first compound 0.01 µM
  relative viability: 0.579
[13]; first compound 0.03162 µM
  relative viability: 0.622
[13]; first compound 0.3162 µM
  relative viability: 0.604
[14]; first compound 0.03162 µM
  relative viability: 0.263
[14]; first compound 0.3162 µM
  relative viability: 0.394
[15]; first compound 0.01 µM
  relative viability: 0.24
[15]; first compound 0.03162 µM
  relative viability: 0.518
[15]; first compound 0.3162 µM
  relative viability: 0.481
[16]; first compound 0.01 µM
  relative viability: 0.483
[16]; first compound 0.03162 µM
  relative viability: 0.454
[16]; first compound 0.3162 µM
  relative viability: 0.357
[17]; first compound 0.01 µM
  relative viability: 0.751
[17]; first compound 0.03162 µM
  relative viability: 0.678
[17]; first compound 0.3162 µM
  relative viability: 0.689
[18]; first compound 0.01 µM
  relative viability: 0.905
[18]; first compound 0.03162 µM
  relative viability: 0.964
[18]; first compound 0.3162 µM
  relative viability: 0.721
[19]; first compound 0.01 µM
  relative viability: 0.189
[19]; first compound 0.03162 µM
  relative viability: 0.36
[19]; first compound 0.3162 µM
  relative viability: 0.296
[20]; first compound 0.01 µM
  relative viability: 1.35
[20]; first compound 0.03162 µM
  relative viability: 1.41
[20]; first compound 0.3162 µM
  relative viability: 1.17
[21]; first compound 0.01 µM
  relative viability: 1.06
[21]; first compound 0.03162 µM
  relative viability: 0.875
[21]; first compound 0.3162 µM
  relative viability: 0.917
[22]; first compound 0.01 µM
  relative viability: 0.649
[22]; first compound 0.03162 µM
  relative viability: 0.613
[22]; first compound 0.3162 µM
  relative viability: 0.508
[23]; first compound 0.01 µM
  relative viability: 0.804
[23]; first compound 0.3162 µM
  relative viability: 0.869
